ChEMBL document CHEMBL1144015, “Antiproliferative effects on human tumor cells and rat aortic smooth muscular cells of 2,3-heteroarylmaleimides and heterofused imides” (Bioorg Med Chem, 2008)
Active and inactive are the calls of the source. The calls are words filed in the database; no cut-off is given here.

Assays:
[1] = Binding affinity to supercoiled pRYG DNA by DNA intercalating assay
[2] = test system: NCI-H460; experiment: Antiproliferative activity against human NCI-H460 cells after 72 hrs; format: functional, cell-based; conditions: NCI-H460, 72 h
[3] = Partition coefficient, log P of the compound; format: physicochemical; conditions: octanol/water
[4] = Effect on cell proliferation of Sprague-Dawley rat smooth muscle cells after 72 hrs

SMILES	Activity [1]	IC50 [2] [µM]	logP [3]	IC50 [4] [µM]
CCN(CC)CCN1C(=O)C(c2cccs2)=C(c2cccs2)C1=O	inactive	8.9	2.9	3.9
CCN(CC)CCN1C(=O)C(c2cc3ccccc3[nH]2)=C(c2cccs2)C1=O	–	8.4	3.8	5.3
O=C1c2cccc3cccc(c23)C(=O)N1CCNCCCNCCN1C(=O)c2cccc3cccc(c23)C1=O	Active	–	–	–
CCN(CC)CCN1C(=O)C(c2c[nH]c3ccccc23)=C(c2cccn2C)C1=O	–	8.5	2.9	3.6
CCN(CC)CCN1C(=O)C(c2ccco2)=C(c2cccs2)C1=O	–	8.7	2.1	2.1
CCN(CC)CCN1C(=O)c2c(c3sccc3c3ccoc23)C1=O	–	> 30	3	> 30
CCN(CC)CCN1C(=O)c2c(c3sccc3c3ccccc23)C1=O	–	7.1	3.9	13.9
CCN(CC)CCN1C(=O)C(c2ccco2)=C(c2cccn2C)C1=O	–	> 30	0.9	–
CCN(CC)CCN1C(=O)c2c(c3sccc3c3ccsc23)C1=O	inactive	4.8	3.8	0.53
CCN(CC)CCN1C(=O)c2c(c3ccccc3c3ccccc23)C1=O	–	0.9	4.1	0.68
CN(C)CCN1C(=O)c2cccc3cc(N)cc(c23)C1=O [AMONAFIDE]	–	7.8	1.6	0.48
CCN(CC)CCN1C(=O)C(c2cccs2)=C(c2c[nH]c3ccccc23)C1=O	–	1.9	3.8	1
CCN(CC)CCN1C(=O)c2c(c3c(ccn3C)c3ccoc23)C1=O	–	8.6	1.7	5.3
CCN(CC)CCN1C(=O)c2c(c3c(ccn3C)c3ccsc23)C1=O	inactive	0.84	2.5	0.08
CCN(CC)CCN1C(=O)C(c2cccs2)=C(c2cccn2C)C1=O	inactive	9	1.7	12.1
